Measurements reported in the supplement of paper PMC10307832.

Columns and labels:
Test in all cases: relative viability (nuclei count vs DMSO), 5 days (fraction); higher = more cells survive
[1] = compound: Cc1nc(Nc2ncc(C(=O)Nc3c(C)cccc3Cl)s2)cc(N2CCN(CCO)CC2)n1 [Dasatinib] + Nc1ncn([C@H]2C[C@H](O)[C@@H](CO)O2)c(=O)n1 [Decitabine] (partner 2 µM)
Method in brief: (§1)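 For relative viability, nuclei counts in treated wells were divided by those in vehicle wells. Lung cancer cell lines had been pin-tool dosed in 1536-well plates the day after seeding and cultured for 5 days, then fixed and stained in one step (final 0.05% Triton X-100, 1% formaldehyde, 1 ug/ml Hoechst) and imaged at 4×. Doses were one drug alone or a fixed anchor-drug dose plus five library-drug doses (not always all listed) in √10 steps, and values are duplicate-plate medians.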

[2] = compound: C1CC1C(=O)NC2=NNC3=C2C=CC(=C3)C4=CC(=CC=C4)C(=O)NC5CC5 [XMD13-2] + Cc1nc(NC(=O)N2CCC[C@H]2C(N)=O)sc1-c1ccnc(C(C)(C)C(F)(F)F)c1 [Alpelisib] (partner 2 µM)
Method in brief: as §1

[3] = compound: Cc1ccc(C(=O)Nc2cccc(C(F)(F)F)c2)cc1Nc1cncc(C(N)=O)c1 [ALW-II-49-7] + COc1cc2c(Oc3ccc(NC(=O)C4(C(=O)Nc5ccc(F)cc5)CC4)cc3F)ccnc2cc1OCCCN1CCOCC1 [Foretinib] (partner 0.25 µM)
Method in brief: as §1

[4] = compound: Cc1ccc(C(=O)Nc2cccc(C(F)(F)F)c2)cc1Nc1cncc(C(N)=O)c1 [ALW-II-49-7] + Cc1nc(NC(=O)N2CCC[C@H]2C(N)=O)sc1-c1ccnc(C(C)(C)C(F)(F)F)c1 [Alpelisib] (partner 2 µM)
Method in brief: as §1

Cell Line: NCI-H650
- relative viability ([1]; first compound 0.005 µM): 0.325
- relative viability ([1]; first compound 0.01581 µM): 0.281
- relative viability ([1]; first compound 0.05 µM): 0.318
- relative viability ([1]; first compound 0.1581 µM): 0.341
- relative viability ([1]; first compound 0.5 µM): 0.302
- relative viability ([2]; first compound 0.05 µM): 1.21
- relative viability ([2]; first compound 0.1581 µM): 1.2
- relative viability ([2]; first compound 0.5 µM): 1.43
- relative viability ([2]; first compound 1.581 µM): 1.18
- relative viability ([2]; first compound 5 µM): 1.15
- relative viability ([3]; first compound 0.08 µM): 1.16
- relative viability ([3]; first compound 0.253 µM): 1.06
- relative viability ([3]; first compound 0.8 µM): 1.01
- relative viability ([3]; first compound 2.53 µM): 0.92
- relative viability ([3]; first compound 8 µM): 0.638
- relative viability ([4]; first compound 0.08 µM): 1.14
- relative viability ([4]; first compound 0.253 µM): 1.08
- relative viability ([4]; first compound 0.8 µM): 1.13
- relative viability ([4]; first compound 2.53 µM): 0.353
- relative viability ([4]; first compound 8 µM): 0.669

Cell Line: NCI-H661
- relative viability ([1]; first compound 0.005 µM): 0.566
- relative viability ([1]; first compound 0.01581 µM): 0.528
- relative viability ([1]; first compound 0.05 µM): 0.518
- relative viability ([1]; first compound 0.1581 µM): 0.394
- relative viability ([1]; first compound 0.5 µM): 0.404
- relative viability ([2]; first compound 0.05 µM): 0.751
- relative viability ([2]; first compound 0.1581 µM): 0.854
- relative viability ([2]; first compound 0.5 µM): 0.506
- relative viability ([2]; first compound 1.581 µM): 0.4
- relative viability ([2]; first compound 5 µM): 0.448
- relative viability ([3]; first compound 0.08 µM): 1.17
- relative viability ([3]; first compound 0.253 µM): 1.08
- relative viability ([3]; first compound 0.8 µM): 0.954
- relative viability ([3]; first compound 2.53 µM): 1.01
- relative viability ([3]; first compound 8 µM): 0.884
- relative viability ([4]; first compound 0.08 µM): 0.665
- relative viability ([4]; first compound 0.253 µM): 0.691
- relative viability ([4]; first compound 0.8 µM): 0.645
- relative viability ([4]; first compound 8 µM): 0.522

Cell Line: NCI-H727
- relative viability ([1]; first compound 0.005 µM): 0.818
- relative viability ([1]; first compound 0.01581 µM): 0.7
- relative viability ([1]; first compound 0.05 µM): 0.742
- relative viability ([1]; first compound 0.1581 µM): 0.718
- relative viability ([1]; first compound 0.5 µM): 0.295
- relative viability ([2]; first compound 0.05 µM): 0.549
- relative viability ([2]; first compound 0.1581 µM): 0.423
- relative viability ([2]; first compound 0.5 µM): 0.527
- relative viability ([2]; first compound 1.581 µM): 0.51
- relative viability ([2]; first compound 5 µM): 0.55
- relative viability ([3]; first compound 0.08 µM): 1.17
- relative viability ([3]; first compound 0.253 µM): 0.832
- relative viability ([3]; first compound 0.8 µM): 1.1
- relative viability ([3]; first compound 2.53 µM): 0.912
- relative viability ([3]; first compound 8 µM): 1.08
- relative viability ([4]; first compound 0.08 µM): 0.716
- relative viability ([4]; first compound 0.253 µM): 0.572
- relative viability ([4]; first compound 0.8 µM): 0.538
- relative viability ([4]; first compound 2.53 µM): 0.678
- relative viability ([4]; first compound 8 µM): 0.541

Cell Line: NCI-H838
- relative viability ([1]; first compound 0.005 µM): 0.45
- relative viability ([1]; first compound 0.01581 µM): 0.422
- relative viability ([1]; first compound 0.05 µM): 0.39
- relative viability ([1]; first compound 0.1581 µM): 0.377
- relative viability ([1]; first compound 0.5 µM): 0.3
- relative viability ([2]; first compound 0.05 µM): 1.14
- relative viability ([2]; first compound 0.1581 µM): 1.04
- relative viability ([2]; first compound 0.5 µM): 1.01
- relative viability ([2]; first compound 1.581 µM): 1
- relative viability ([2]; first compound 5 µM): 1.06
- relative viability ([3]; first compound 0.08 µM): 0.988
- relative viability ([3]; first compound 0.253 µM): 1.12
- relative viability ([3]; first compound 0.8 µM): 1.04
- relative viability ([3]; first compound 2.53 µM): 1.12
- relative viability ([3]; first compound 8 µM): 1.24
- relative viability ([4]; first compound 0.08 µM): 0.847
- relative viability ([4]; first compound 0.253 µM): 1.13
- relative viability ([4]; first compound 0.8 µM): 1
- relative viability ([4]; first compound 2.53 µM): 1.13
- relative viability ([4]; first compound 8 µM): 0.987

Cell Line: NCI-H1355
- relative viability ([1]; first compound 0.005 µM): 0.355
- relative viability ([1]; first compound 0.01581 µM): 0.319
- relative viability ([1]; first compound 0.05 µM): 0.354
- relative viability ([1]; first compound 0.1581 µM): 0.343
- relative viability ([1]; first compound 0.5 µM): 0.272
- relative viability ([2]; first compound 0.05 µM): 0.924
- relative viability ([2]; first compound 0.1581 µM): 0.888
- relative viability ([2]; first compound 0.5 µM): 0.843
- relative viability ([2]; first compound 1.581 µM): 0.777
- relative viability ([2]; first compound 5 µM): 0.776
- relative viability ([3]; first compound 0.08 µM): 1.05
- relative viability ([3]; first compound 0.253 µM): 0.895
- relative viability ([3]; first compound 0.8 µM): 0.969
- relative viability ([3]; first compound 2.53 µM): 0.887
- relative viability ([3]; first compound 8 µM): 1.02
- relative viability ([4]; first compound 0.08 µM): 0.696
- relative viability ([4]; first compound 0.253 µM): 0.867
- relative viability ([4]; first compound 0.8 µM): 0.832
- relative viability ([4]; first compound 2.53 µM): 0.679
- relative viability ([4]; first compound 8 µM): 0.645

Cell Line: NCI-H1395
- relative viability ([1]; first compound 0.005 µM): 0.73
- relative viability ([1]; first compound 0.01581 µM): 0.669
- relative viability ([1]; first compound 0.05 µM): 0.694
- relative viability ([1]; first compound 0.1581 µM): 0.57
- relative viability ([1]; first compound 0.5 µM): 0.326
- relative viability ([2]; first compound 0.05 µM): 1.3
- relative viability ([2]; first compound 0.1581 µM): 1.07
- relative viability ([2]; first compound 0.5 µM): 0.976
- relative viability ([2]; first compound 1.581 µM): 0.984
- relative viability ([2]; first compound 5 µM): 1.1
- relative viability ([3]; first compound 0.08 µM): 1.09
- relative viability ([3]; first compound 0.253 µM): 1.03
- relative viability ([3]; first compound 0.8 µM): 1
- relative viability ([3]; first compound 2.53 µM): 1.03
- relative viability ([3]; first compound 8 µM): 0.943
- relative viability ([4]; first compound 0.08 µM): 1.22
- relative viability ([4]; first compound 0.253 µM): 1.1
- relative viability ([4]; first compound 0.8 µM): 1.04
- relative viability ([4]; first compound 2.53 µM): 0.307
- relative viability ([4]; first compound 8 µM): 1.09

Cell Line: NCI-H1437
- relative viability ([1]; first compound 0.005 µM): 0.599
- relative viability ([1]; first compound 0.01581 µM): 0.576
- relative viability ([1]; first compound 0.05 µM): 0.642
- relative viability ([1]; first compound 0.1581 µM): 0.499
- relative viability ([1]; first compound 0.5 µM): 0.49
- relative viability ([2]; first compound 0.05 µM): 0.935
- relative viability ([2]; first compound 0.1581 µM): 1.06
- relative viability ([2]; first compound 0.5 µM): 0.955
- relative viability ([2]; first compound 1.581 µM): 0.796
- relative viability ([2]; first compound 5 µM): 1.05
- relative viability ([3]; first compound 0.08 µM): 1.35
- relative viability ([3]; first compound 0.253 µM): 1.26
- relative viability ([3]; first compound 0.8 µM): 1.2
- relative viability ([3]; first compound 2.53 µM): 1.26
- relative viability ([3]; first compound 8 µM): 1.16
- relative viability ([4]; first compound 0.08 µM): 0.949
- relative viability ([4]; first compound 0.253 µM): 1.01
- relative viability ([4]; first compound 2.53 µM): 0.901
- relative viability ([4]; first compound 8 µM): 0.959

Cell Line: NCI-H1651
- relative viability ([1]; first compound 0.005 µM): 0.629
- relative viability ([1]; first compound 0.01581 µM): 0.507
- relative viability ([1]; first compound 0.05 µM): 0.558
- relative viability ([1]; first compound 0.1581 µM): 0.585
- relative viability ([1]; first compound 0.5 µM): 0.473
- relative viability ([2]; first compound 0.05 µM): 1.19
- relative viability ([2]; first compound 0.1581 µM): 0.899
- relative viability ([2]; first compound 0.5 µM): 0.942
- relative viability ([2]; first compound 1.581 µM): 0.913
- relative viability ([2]; first compound 5 µM): 1.02
- relative viability ([3]; first compound 0.08 µM): 0.989
- relative viability ([3]; first compound 0.253 µM): 0.631
- relative viability ([3]; first compound 0.8 µM): 0.953
- relative viability ([3]; first compound 2.53 µM): 0.678
- relative viability ([3]; first compound 8 µM): 0.852
- relative viability ([4]; first compound 0.08 µM): 1.01
- relative viability ([4]; first compound 0.253 µM): 0.832
- relative viability ([4]; first compound 0.8 µM): 0.746
- relative viability ([4]; first compound 2.53 µM): 0.919
- relative viability ([4]; first compound 8 µM): 0.835
